# Key:
# human pancreatic islets = experiment: Glucagon secretion in perifused human islets; type: cell-based; settings: islets from a healthy donor; G3+Arg
# Experimental: For glucagon secretion, glucose (Boston BioProducts #BM-675) solutions, G3, G16.7 and G3 plus 20 mM arginine (Sigma #A8094; G3+Arg) were prepared in PB [24 mM NaHCO3 (Fisher Scientific #S233-500), 120 mM NaCl (Spectrum Chemical #S0155), 4.8 mM KCl (Fisher Scientific #P217-500), 2.5 mM CaCl2 (Fisher Scientific #C614-500), 1.2 mM MgCl2 (Sigma #M8266), 10 mM HEPES (Gibco #15630-080) and 0.1% BSA (EMD Millipore #12-675-100GM)]. Various concentrations of Compound 1 and diazoxide (Sigma #D9035) were prepared in G16.7 or in G3+Arg. On the day of the assay, ten perifusion chambers (Biorep #Peri-chamber) were loaded with a bead suspension (Biorep #Peri-beads-20) followed by 300 IEQ and another layer of bead suspension. Chambers were filled with PB, placed in the perifusion equipment and equilibrated with G3 for 74 min (flow rate=230 μL/min) followed by the perifusion steps for glucagon secretion shown in Table 3. […] Glucagon concentration was quantified using the commercially-available Mercodia Glucagon ELISA (Mercodia #10-1271-01) kit. undiluted perfusate samples were added to the supplied pre-coated assay plates. […] The optical density of each well was determined at 450 nm in a Tecan M1000Pro (Tecan, Switzerland) multiplate reader. Glucagon concentrations were calculated by regression to the standard curve using GraphPad Prism (GraphPad, San Diego, Calif.).
# [1] = cited from earlier work
# [2] = fasting conditions; cited from earlier work
# [3] = tested on: glyburide-induced hyperinsulinemic hypoglycemia; experiment: Glyburide-induced hyperinsulinemic hypoglycemia model in rats; type: in vivo, Sprague Dawley rats; settings: 30 mg/kg oral, adult male rats; mean baseline 168 mg/dL
# Experimental: Sulfonylurea drugs, such as glyburide, inhibit KATP channels and can be used in rat preclinical models to mimic the disease state of congenital HI patients with KATP channel mutations.
# This model of glyburide-induced hyperinsulinemic hypoglycemia was used to assess the pharmacodynamic effects of Compound 1 after a single administration in male and female adult rats and male neonatal rats.
# Glyburide was administered to raise insulin levels and induce hypoglycemia in adult male Sprague Dawley rats.
# Two hours following glyburide administration, Compound 1 was given by oral gavage and blood glucose was monitored over 5 hours.
Compound,Inhibition of arginine-stimulated glucagon secretion (human pancreatic islets),Patients treated and considered responsive who continue to have hypoglycemia ([1]; 2020 Congenital HI International Global Registry report),Patients who experienced pulmonary hypertension ([1]; one study),Side effect: fluid retention ([1]; patients),Side effect: gastrointestinal side effects including feeding aversion ([1]; patients),Side effect: severe hypertrichosis ([1]; patients),half-life [2],Blood glucose level after glyburide [3]
CC1=NS(=O)(=O)c2cc(Cl)ccc2N1 [diazoxide],up to 57%,30%,4.8%,approximately 30%,approximately 12%,approximately 52%,,
"COc1ccc(Cl)cc1C(=O)NCCc1ccc(S(=O)(=O)NC(=O)NC2CCCCC2)cc1 [glyburide, reference compound]",,,,,,,approximately 10 hours,70 mg/dL
